Patent publication US11053246B2, “Substituted tricyclic compounds as FGFR inhibitors” (Incyte Corporation, priority 2012, dated 2021)

What was measured:
Format in all cases: biochemical
FGFR1 = FGFR1 (Homo sapiens (Human), UniProt P11362); experiment: FGFR Enzymatic Assay (FRET peptide phosphorylation), FGFR1; conditions: FGFR1 enzyme 0.02 nM, ATP 210 μM, 25° C., 1 hr
FGFR3 = FGFR3 (Homo sapiens (Human), UniProt P22607); experiment: FGFR Enzymatic Assay (FRET peptide phosphorylation), FGFR3; conditions: FGFR3 enzyme (Millipore), ATP 140 μM, 25° C., 1 hr
Sequence of FGFR3 (P22607 23-806): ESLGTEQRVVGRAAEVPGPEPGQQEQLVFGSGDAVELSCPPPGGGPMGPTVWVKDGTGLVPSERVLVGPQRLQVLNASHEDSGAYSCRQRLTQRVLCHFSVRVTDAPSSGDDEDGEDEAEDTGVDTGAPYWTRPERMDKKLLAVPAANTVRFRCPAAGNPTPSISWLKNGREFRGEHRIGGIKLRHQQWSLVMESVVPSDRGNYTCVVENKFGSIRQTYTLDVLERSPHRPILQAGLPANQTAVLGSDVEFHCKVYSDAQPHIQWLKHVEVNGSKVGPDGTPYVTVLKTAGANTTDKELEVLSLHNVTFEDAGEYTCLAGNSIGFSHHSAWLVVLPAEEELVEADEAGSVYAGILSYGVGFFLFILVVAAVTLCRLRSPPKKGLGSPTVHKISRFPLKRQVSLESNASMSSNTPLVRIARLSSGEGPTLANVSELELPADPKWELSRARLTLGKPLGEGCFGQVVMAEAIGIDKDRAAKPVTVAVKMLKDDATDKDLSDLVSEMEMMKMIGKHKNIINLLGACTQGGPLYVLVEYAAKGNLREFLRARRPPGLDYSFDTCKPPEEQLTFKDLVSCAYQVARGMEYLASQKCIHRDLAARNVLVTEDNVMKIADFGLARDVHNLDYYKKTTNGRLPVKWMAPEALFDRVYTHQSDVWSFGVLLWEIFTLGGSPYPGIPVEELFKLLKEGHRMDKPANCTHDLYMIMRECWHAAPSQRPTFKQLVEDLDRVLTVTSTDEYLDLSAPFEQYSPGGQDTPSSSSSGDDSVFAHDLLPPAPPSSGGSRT
Experimental: (§1) The inhibitor potency of the exemplified compounds was measured in an enzyme assay that measures peptide phosphorylation using FRET measurements to detect product formation. Inhibitors were serially diluted in DMSO and a volume of 0.5 μL was transferred to the wells of a 384-well plate. For FGFR3, a 10 μL volume of FGFR3 enzyme (Millipore) diluted in assay buffer (50 mM HEPES, 10 mM MgCl2, 1 mM EGTA, 0.01% Tween-20, 5 mM DTT, pH 7.5) was added to the plate and pre-incubated for 5-10 minutes. Appropriate controls (enzyme blank and enzyme with no inhibitor) were included on the plate. […] The plate was incubated at 25° C. for 1 hr. […] The plate was allowed to equilibrate for ˜1 hr before scanning the wells on a PheraStar plate reader (BMG Labtech).
(§2) GraphPad prism3 was used to analyze the data. The IC50 values were derived by fitting the data to the equation for a sigmoidal dose-response with a variable slope. Y=Bottom+(Top−Bottom)/(1+10^((Log IC50−X)*HillSlope)) where X is the logarithm of concentration and Y is the response.

FGFR2 = FGFR2 (Homo sapiens (Human), UniProt P21802); experiment: FGFR Enzymatic Assay (FRET peptide phosphorylation), FGFR2; conditions: FGFR2 enzyme 0.01 nM, ATP 100 μM, 25° C., 1 hr
Sequence of FGFR2 (P21802 22-821): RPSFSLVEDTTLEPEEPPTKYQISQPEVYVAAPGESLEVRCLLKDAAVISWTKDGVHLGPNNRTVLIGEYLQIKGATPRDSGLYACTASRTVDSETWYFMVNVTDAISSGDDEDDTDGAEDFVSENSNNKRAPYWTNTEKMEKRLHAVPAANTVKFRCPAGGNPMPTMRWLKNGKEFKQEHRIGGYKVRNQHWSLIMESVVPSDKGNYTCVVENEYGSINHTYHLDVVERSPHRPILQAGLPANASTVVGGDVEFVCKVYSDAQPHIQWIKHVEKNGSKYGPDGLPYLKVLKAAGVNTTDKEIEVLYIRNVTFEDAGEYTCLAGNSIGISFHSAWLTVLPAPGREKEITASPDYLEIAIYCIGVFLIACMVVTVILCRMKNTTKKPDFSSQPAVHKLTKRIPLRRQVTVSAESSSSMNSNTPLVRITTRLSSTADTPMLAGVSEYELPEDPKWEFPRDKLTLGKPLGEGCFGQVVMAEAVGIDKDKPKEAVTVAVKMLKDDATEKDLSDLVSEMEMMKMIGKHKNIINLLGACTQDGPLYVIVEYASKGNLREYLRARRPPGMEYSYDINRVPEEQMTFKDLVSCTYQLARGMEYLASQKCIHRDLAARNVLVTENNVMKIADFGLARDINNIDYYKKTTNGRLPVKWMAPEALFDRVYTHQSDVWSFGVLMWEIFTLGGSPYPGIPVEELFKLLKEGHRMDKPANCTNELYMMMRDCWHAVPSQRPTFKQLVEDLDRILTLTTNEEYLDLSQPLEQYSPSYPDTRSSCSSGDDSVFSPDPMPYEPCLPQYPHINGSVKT
Experimental: as §1
The enzymes were purchased from Millipore or Invitrogen.
as §2

Measured: IC50

Sequence of FGFR1 (P11362 22-822): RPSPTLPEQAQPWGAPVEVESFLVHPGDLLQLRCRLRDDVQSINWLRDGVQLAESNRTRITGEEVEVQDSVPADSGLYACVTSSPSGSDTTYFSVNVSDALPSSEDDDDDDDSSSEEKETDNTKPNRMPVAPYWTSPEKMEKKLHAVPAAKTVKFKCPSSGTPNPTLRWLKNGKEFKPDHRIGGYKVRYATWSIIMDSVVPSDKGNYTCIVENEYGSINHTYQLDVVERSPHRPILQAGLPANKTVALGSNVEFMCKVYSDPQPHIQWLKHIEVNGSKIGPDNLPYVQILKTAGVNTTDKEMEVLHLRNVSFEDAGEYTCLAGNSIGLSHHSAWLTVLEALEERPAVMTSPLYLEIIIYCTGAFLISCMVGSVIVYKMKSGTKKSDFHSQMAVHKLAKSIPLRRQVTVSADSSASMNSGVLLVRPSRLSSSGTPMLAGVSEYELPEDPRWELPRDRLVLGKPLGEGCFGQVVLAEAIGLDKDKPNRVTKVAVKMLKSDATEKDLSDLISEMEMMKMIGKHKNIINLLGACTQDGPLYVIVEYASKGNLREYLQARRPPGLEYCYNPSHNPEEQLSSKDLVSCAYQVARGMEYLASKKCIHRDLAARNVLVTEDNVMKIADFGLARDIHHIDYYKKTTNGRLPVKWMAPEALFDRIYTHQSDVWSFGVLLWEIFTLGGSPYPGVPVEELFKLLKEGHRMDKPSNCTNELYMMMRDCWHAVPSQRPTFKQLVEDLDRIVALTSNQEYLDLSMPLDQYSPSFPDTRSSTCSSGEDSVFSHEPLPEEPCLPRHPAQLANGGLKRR

CCN1C(=O)N(c2c(F)c(OC)cc(OC)c2Cl)Cc2cnc3c(c21)CC(=O)N3 [Example 63, 3-(2-chloro-6-fluoro-3,5-dimethoxyphenyl)-1-ethyl-3,4,7,9-tetrahydro-1H-pyrrolo[3′,2′:5,6]pyrido[4,3-d]pyrimidine-2,8-dione]
< 100 nM: all assays above
